No end group written: not given here.
Key:
[1] = tested on: NFAT transcriptional activity; assay: NFAT-luc luciferase reporter assay in Jurkat T cells; assay type: cell-based; details: GST-tagged peptides, 40 nM PMA and 1 μM ionomycin 8 h
Experimental: To measure the transcriptional activity of NFAT, we cotransfected Jurkat T cells with GST-tagged peptides and NFAT-luc by electroporation. After 24 h, we pretreated the cells with 0.5 μM FK506 for 1 h and then treated them with 40 nM PMA and 1 μM ionomycin for 8 h. For the mammalian two-hybrid assay, we cotransfected HEK293T cells with GAL4 DBD-tagged CABIN1, VIVIT, chimeric and substituted peptides, VP16 activation domain-tagged CNAβ2, and pG5-luc (luciferase reporter plasmid containing the GAL4-responsive promoter) for 24 h. We lysed the harvested cells with a luciferase assay lysis buffer (17 mM KH2PO4, 183 mM K2HPO4, pH 7.8, 0.2% [v/v] Triton X-100) and sonicated them briefly. We measured luciferase activity for each cell lysate using an Infinite M200 (Tecan, Männedorf, Switzerland). In addition, we confirmed the expression level of the transfected proteins by Western blotting.
(§1) RU response units, NC negative control.
(1 picture or pasted object on this page, not shown here)

tNFATC2 nuclear import = assay: Nuclear localization of EGFP-tNFATC2 by confocal microscopy in Jurkat T cells; assay type: cell-based; details: 40 nM PMA and 1 μM ionomycin 4 h, FK506 0.5 μM, n = 10-12
Experimental: We transfected Jurkat T cells with the pCAG-EGFP-tNFATC2-IRES-mCherry-peptide by electroporation. After two days, we pretreated these cells with 0.5 μM FK506 for 30 min. Then, we treated them with 40 nM PMA and 1 μM ionomycin under culture conditions for 4 h. Before imaging by a confocal laser scanning microscope (Nikon, Tokyo, Japan), we treated the cells with 10 μg/ml Hoechst 33342 (Invitrogen, Waltham, MA, USA) to stain nuclei. Colocalization analysis of mCherry and Hoechst was performed with ImageJ and its plugin JACoP to measure the Manders coefficient[23],[24].
Scale bar, 50 μm e Nuclear-localized tNFATC2 was measured by calculating the colocalization ratio between Hoechst (M1) and EGFP (M2).

[2] = tested on: CNA (calcineurin catalytic subunit); assay: In vitro peptide competition assay (GST-tagged peptide / His6-tagged CNA); assay type: binding; details: competitor CABIN1-L-1; molar ratio GST-peptide to competitor 1:50 to 1:400
[3] = tested on: calcineurin (CNA) phosphatase activity; assay: Calcineurin cellular activity assay in Jurkat T cells; assay type: cell-based; details: HA-mCherry-tagged peptides, PMA and ionomycin
Experimental: (§2) We measured calcineurin phosphatase activity in vitro using a calcineurin phosphatase assay kit (BML-AK804, Enzo Life Sciences, Farmingdale, NY, USA). We incubated GST or GST-tagged peptides with CNA for 30 min at room temperature and then followed the manufacturer’s instructions. To measure endogenous calcineurin phosphatase activity, we transiently transfected Jurkat T cells with CAG-HA-mCherry-peptides by electroporation. After 24 h, we pretreated the Jurkat T cells with FK506 for 1 h before activating them with PMA and ionomycin. Next, we washed the cells with TBS buffer (20 mM Tris, pH 7.2, 150 mM NaCl), resuspended them with lysis buffer from the calcineurin cellular activity assay kit (BML-AK816, Enzo Life Sciences), and kept them on ice for 30 min. We collected the lysate supernatant and removed free phosphate by gel filtration using the Desalting Column Resin included in the kit. Next, we followed the manufacturer’s instructions.
(§3) Jurkat T cells expressing only HA-mCherry were used as a negative control, and cells treated with FK506 were used as a positive control. d In vitro calcineurin phosphatase activity assays using purified GST-tagged peptides. Purified GST was used as a negative control. […] Statistical differences were determined using one-way ANOVA. *p < 0.05, NS nonsignificant, NC negative control.

[4] = tested on: calcineurin (CNA) phosphatase activity; assay: In vitro calcineurin phosphatase activity assay; assay type: biochemical; details: purified GST-tagged peptides with CNA 30 min room temperature
Experimental: as §2, §3

[5] = Protein stability of HA-mCherry-VIVIT peptides in Jurkat T cells (western blot, FACS); assay type: cell-based; details: mCherry-tagged, vs VIVIT 15-mer
Experimental: We quantified the expression of mCherry-tagged VIVIT peptides using LSRII (SORP) (Becton Dickinson, Franklin Lakes, NJ, USA). We analyzed the results with FlowJo (Tree Star, Inc., Ashland, OR, USA).
Protein expression l evels of VIVIT peptides were detected with HA antibody in Jurkat T cells expressing HA-mCherry -VIVIT peptides. c mCherry expression intensity and distribution
cells/sample) d mRNA expression level of mCherry was measured by qRT -PCR. (n=4) Values shown are the mean ± standard deviation. SE, short exposure, LE, long expo sure, NC, negative

[6] = tested on: CABIN1 peptide threonine 9 phosphorylation; assay: Phosphorylation of threonine 9 of the expressed peptide in Jurkat T cells (PXpTP western blot, LC-MS/MS); assay type: cell-based; details: HA-mCherry-tagged peptide; western blot (PXpTP antibody) and LC-MS/MS
Excerpt: We lysed the cells in IP150 buffer and immunoprecipitated Flag- and HA-tagged proteins with Anti-FLAG ® M2 Affinity Gel (Sigma–Aldrich) and Pierce™ Anti-HA Agarose (Thermo Fisher Scientific), respectively. The composition of the buffer and the subsequent process was described previously. To quantify the western blot results, we measured the band areas using ImageJ (https://imagej.nih.gov/ij/).
We purified HA-mCherry-tagged CABIN1-L-1-2 peptides expressed in Jurkat T cells by immunoprecipitating 4 mg of lysates with Pierce™ Anti-HA Agarose. We eluted the bead-bound proteins by competition with 1 mg/ml HA peptide. After separation by SDS-PAGE and staining with Coomassie Brilliant Blue, we analyzed the purified proteins by LC-MS/MS (ProteomeTech, Inc., Seoul, Korea).
as §1
The phosphorylated threonine of the immunoprecipitated peptide with HA antibody was detected with [PXpTP] antibody. b In vitro kinase assays using purified GST-tagged CABIN1 peptide and PKC downstream kinases. c In vitro kinase assays using purified GST-tagged peptides and kinases included in the MAPK family. d Immunoprecipitation assays using Flag-MAPKs and HA-CABIN1 in HEK293T cells. e, f In vitro kinase assays using p38α and substituted CABIN1 peptides. g Jurkat T cells expressing HA-mCherry-tagged CABIN1 peptide were treated with 10 μM p38α inhibitors for 16 h. Immunoprecipitation was performed with HA antibody and detected by western blotting. h Phosphorylated threonine and peptide-bound CNA of g were measured using ImageJ, and the ratio of phosphorylation and calcineurin binding to the CABIN1 peptide was calculated (n = 6). […] Statistical differences were determined using one-way ANOVA. *p < 0.05, **p < 0.01, ***p < 0.001, CBB Coomassie Brilliant Blue, NC negative control.

p38α = assay: In vitro kinase assay, p38α; assay type: biochemical; details: GST-tagged peptide, 1 h, 30 °C, 50 μM ATP
Experimental: (§4) We used the purified GST-tagged peptides for the in vitro kinase assays with activated recombinant kinases obtained from Proqinase GmbH (Freiburg, Germany). We performed the kinase assays in reaction buffer (50 mM HEPES-NaOH, pH 7.5, 3 mM MgCl2, 3 mM MnCl2, 3 μM sodium orthovanadate, 1 mM dithiothreitol, 50 μM unlabeled ATP, 5 μCi ^32P-γ-ATP) for 1 h at 30 °C. We stopped the reaction by adding 5× sample buffer and separated the proteins using SDS-PAGE. The gel was stained with Coomassie Brilliant Blue, dried, and developed on X-ray film.
(§5) The phosphorylated threonine of the immunoprecipitated peptide with HA antibody was detected with [PXpTP] antibody. b In vitro kinase assays using purified GST-tagged CABIN1 peptide and PKC downstream kinases. c In vitro kinase assays using purified GST-tagged peptides and kinases included in the MAPK family. d Immunoprecipitation assays using Flag-MAPKs and HA-CABIN1 in HEK293T cells. e, f In vitro kinase assays using p38α and substituted CABIN1 peptides. g Jurkat T cells expressing HA-mCherry-tagged CABIN1 peptide were treated with 10 μM p38α inhibitors for 16 h. Immunoprecipitation was performed with HA antibody and detected by western blotting. h Phosphorylated threonine and peptide-bound CNA of g were measured using ImageJ, and the ratio of phosphorylation and calcineurin binding to the CABIN1 peptide was calculated (n = 6). […]

ERK2 = assay: In vitro kinase assay, ERK2; assay type: biochemical; details: GST-tagged peptide, 1 h, 30 °C, 50 μM ATP
Experimental: as §4, §5

JNK1 = assay: In vitro kinase assay, JNK1; assay type: biochemical; details: GST-tagged peptide, 1 h, 30 °C, 50 μM ATP
Experimental: as §4, §5

MKK4 = assay: In vitro kinase assay, MKK4; assay type: biochemical; details: GST-tagged peptide, 1 h, 30 °C, 50 μM ATP
Experimental: as §4, §5

[7] = set-up: method as in PMID 24319282; details: ref [17]; cited from earlier work
Excerpt: FK506 and cyclosporin A, respectively cooperating with FKBP12 or cyclophilin, spatially hinder the substrates’ access to the active site of calcineurin, inhibiting its phosphatase activity[30],[31].

With “CABIN1-L-1-2: 10 amino acids from proline 2146 to proline 2155 of full-length CABIN1; expressed GST-, GAL4 DBD- or HA-mCherry-tagged (PEITVTPPTP; also: expressed GST-, GAL4 DBD- or HA-mCherry-tagged, end not given here)” the NFAT luciferase activity ([1]; n = 3) was “repressed luciferase activity compared with the negative control”, the “inhibitory effect on NFAT luciferase relative to VIVIT peptide” value ([1]; n = 3, vs VIVIT peptide) was “approximately four times stronger than that of the VIVIT peptide” and the “proportion of nuclear-localized tNFATC2” value (tNFATC2 nuclear import) was “slightly higher”. The “interference with interaction between GST-tagged VIVIT peptide and His6-tagged CNA” value [2] was “dose-dependently interfered with the interaction”, the “calcineurin phosphatase activity in cells” value [3] was “did not” and the “calcineurin phosphatase activity in vitro” value [4] was “did not reduce the phosphatase activity of CNA in vitro”. For the same compound, the “stability under physiological conditions vs full-length VIVIT peptide (15-mer)” value [5] was “more stable than the full-length VIVIT peptide (15-mer)”, the “threonine 9 phosphorylation in Jurkat T cells” value [6] was “observed threonine 9 phosphorylation” and the “phosphorylation by p38α” value (p38α) was “phosphorylated”. The “phosphorylation by ERK2” value (ERK2) was “phosphorylated”, the “phosphorylation by JNK1” value (JNK1) was “phosphorylated” and the “phosphorylation by MKK4” value (MKK4) was “directly phosphorylate”.
In the case of `C=CC[C@@H]1/C=C(\C)C[C@H](C)C[C@H](OC)[C@H]2O[C@@](O)(C(=O)C(=O)N3CCCC[C@H]3C(=O)O[C@H](/C(C)=C/[C@@H]3CC[C@@H](O)[C@H](OC)C3)[C@H](C)[C@@H](O)CC1=O)[C@H](C)C[C@@H]2OC` [FK506, reference compound], the “proportion of nuclear-localized tNFATC2” value (tNFATC2 nuclear import) is listed as “lowest”, the “calcineurin phosphatase activity in cells” value [3] is listed as “decreased the phosphatase activity of CNA” and the side effects [7] is listed as “nephrotoxicity, fibrogenesis, neurotoxicity, and diabetes”.
